Tests used:
[1] = system: recombinant NL4-3 virus (Renilla luciferase reporter) in MT-2 cells; experiment: HIV cell culture assay (antiviral activity, luciferase readout in infected MT-2 cells); format: cell-based; conditions: NL43
Procedure: HIV cell culture assay—MT-2 cells, 293T cells and the proviral DNA clone of NL4-3 virus were obtained from the NIH AIDS Research and Reference Reagent Program. MT-2 cells were propagated in RPMI 1640 media supplemented with 10% heat inactivated fetal bovine serum (FBS), […]. The 293T cells were propagated in DMEM media supplemented with 10% heat inactivated FBS, […]. A recombinant NL4-3 proviral clone, in which a section of the nef gene was replaced with the Renilla luciferase gene, was used to make the reference virus used in these studies. The recombinant virus was prepared through transfection of the recombinant NL4-3 proviral clone into 293T cells using Transit-293 Transfection Reagent from Mirus Bio LLC (Madison, Wis.). Supernatent was harvested after 2-3 days and the amount of virus present was titered in MT-2 cells using luciferase enzyme activity as a marker by measuring luciferase enzyme activity. Luciferase was quantitated using the EnduRen Live Cell Substrate from Promega (Madison, Wis.). Antiviral activities of compounds toward the recombinant virus were quantified by measuring luciferase activity in MT-2 cells infected for 4-5 days with the recombinant virus in the presence of serial dilutions of the compound.
The 50% effective concentration (EC50) was calculated by using the exponential form of the median effect equation where (Fa)=1/[1+(EC50/drug conc.)m] (Johnson V A, Byington RT. Infectivity Assay. In Techniques in HIV Research, ed. Aldovini A, Walker B D. 71-76. New York: Stockton Press. 1990). The 50% inhibitory concentration (EC50) was calculated by using the exponential form of the median effect equation where percent inhibition=1/[1+(EC50/drug concentration)m], where m is a parameter that reflects the slope of the concentration-response curve.

[2] = Compound cytotoxicity, XTT-based colorimetric assay; format: cell-based; conditions: human; uninfected MT2 cells, day 4, XTT; read-out: CC50
Procedure: Compound cytotoxicity and the corresponding CC50 values were determined using the same protocol as described in the antiviral assay except that uninfected cells were used. Cytotoxicity was assessed on day 4 in uninfected MT2 cells by using a XTT (2,3-bis [2-Methoxy-4-nitro-5-sulfophenyl]-2H-tetrazolium-5-carboxyanilide inner salt)-based colorimetric assay (Sigma-Aldrich, St Louis, Mo.).

Work on Cn1nc(NS(C)(=O)=O)c2c(Cl)ccc(-n3c([C@H](Cc4cc(F)cc(F)c4)NC(=O)Cn4nc(C(F)F)c5c4C(F)(F)[C@@H]4C[C@H]54)nc4nc(N5CCO[C@H](C(F)(F)F)C5)ccc4c3=O)c21 (atropisomer, axis not shown; (P)) [Example 11, N—((S)-1-((3P)-3-(4-chloro-1-methyl-3-(methylsulfonamido)-1H-indazol-7-yl)-4-oxo-7-((S)-2-(trifluoromethyl)morpholino)-3,4-dihydropyrido[2,3-d]pyrimidin-2-yl)-2-(3,5-difluorophenyl)ethyl)-2-((3bS,4aR)-3-(difluoromethyl)-5,5-difluoro-3b,4,4a,5-tetrahydro-1H-cyclopropa[3,4]cyclopenta[1,2-c]pyrazol-1-yl)acetamide] yielded an EC50 [1] of 19 pM and a CC50 at 4 days [2] of over 100000 pM.
Work on Cn1nc(NS(C)(=O)=O)c2c(Cl)ccc(-n3c([C@H](Cc4cc(F)cc(F)c4)NC(=O)Cn4nc(C(F)F)c5c4C(F)(F)[C@@H]4C[C@H]54)nc4nc(N5CCO[C@@H](C(F)(F)F)C5)ccc4c3=O)c21 (atropisomer, axis not shown; (P)) [Example 12, N—((S)-1-((3P)-3-(4-chloro-1-methyl-3-(methylsulfonamido)-1H-indazol-7-yl)-4-oxo-7-((R)-2-(trifluoromethyl)morpholino)-3,4-dihydropyrido[2,3-d]pyrimidin-2-yl)-2-(3,5-difluorophenyl)ethyl)-2-((3bS,4aR)-3-(difluoromethyl)-5,5-difluoro-3b,4,4a,5-tetrahydro-1H-cyclopropa[3,4]cyclopenta[1,2-c]pyrazol-1-yl)acetamide] yielded an EC50 [1] of 20 pM and a CC50 at 4 days [2] of over 100000 pM.
With Cn1nc(NS(C)(=O)=O)c2c(Cl)ccc(-n3c([C@H](Cc4cc(F)cc(F)c4)NC(=O)Cn4nc(C(F)F)c5c4C(F)(F)[C@@H]4C[C@H]54)nc4nc(N(CCC(F)(F)F)C5CCC5)ccc4c3=O)c21 (atropisomer, axis not shown; (P)) [Example 13, N—((S)-1-((3P)-3-(4-chloro-1-methyl-3-(methylsulfonamido)-1H-indazol-7-yl)-7-(cyclobutyl(3,3,3-trifluoropropyl)amino)-4-oxo-3,4-dihydropyrido[2,3-d]pyrimidin-2-yl)-2-(3,5-difluorophenyl)ethyl)-2-((3bS,4aR)-3-(difluoromethyl)-5,5-difluoro-3b,4,4a,5-tetrahydro-1H-cyclopropa[3,4]cyclopenta[1,2-c]pyrazol-1-yl)acetamide] the EC50 [1] was 68 pM and the CC50 at 4 days [2] was over 100000 pM.
Compound Cn1nc(NS(C)(=O)=O)c2c(Cl)ccc(-n3c([C@H](Cc4cc(F)cc(F)c4)NC(=O)Cn4nc(C(F)F)c5c4C(F)(F)[C@@H]4C[C@H]54)nc4nc(N(CCC(F)(F)F)CC5CC5)ccc4c3=O)c21 (atropisomer, axis not shown; (P)) [Example 14, N—((S)-1-((3P)-3-(4-chloro-1-methyl-3-(methylsulfonamido)-1H-indazol-7-yl)-7-((cyclopropylmethyl)(3,3,3-trifluoropropyl)amino)-4-oxo-3,4-dihydropyrido[2,3-d]pyrimidin-2-yl)-2-(3,5-difluorophenyl)ethyl)-2-((3bS,4aR)-3-(difluoromethyl)-5,5-difluoro-3b,4,4a,5-tetrahydro-1H-cyclopropa[3,4]cyclopenta[1,2-c]pyrazol-1-yl)acetamide] has an EC50 [1] of 110 pM and a CC50 at 4 days [2] of over 100000 pM.
For C[C@@H]1CN(c2ccc3c(=O)n(-c4ccc(Cl)c5c(NS(C)(=O)=O)nn(C)c45)c([C@H](Cc4cc(F)cc(F)c4)NC(=O)Cc4ccn(C5CC5)n4)nc3n2)C[C@H](C)O1 (atropisomer, axis not shown; (P)) [Example 15, N—((S)-1-((3P)-3-(4-chloro-1-methyl-3-(methylsulfonamido)-1H-indazol-7-yl)-7-((2S,6R)-2,6-dimethylmorpholino)-4-oxo-3,4-dihydropyrido[2,3-d]pyrimidin-2-yl)-2-(3,5-difluorophenyl)ethyl)-2-(1-cyclopropyl-1H-pyrazol-3-yl)acetamide], the EC50 [1] was 110 pM and the CC50 at 4 days [2] was over 100000 pM.
